# Results reported in US20250270170A1, “2,3-DIMETHOXY-5-METHYL-1,4-BENZOQUINONE ALKYL ALCOHOL DERIVATIVE AND USE THEREOF” (BEIJING ANJIANXI BIO-MEDICAL TECHNOLOGY CO., LTD., priority 2021, published 2025).
# Where “and” joins values, the source holds several entries; their conditions need not be identical. Equal entries are not always repeated. Marks after values point to notes of the source that are not given here.
# Columns and labels:
# [1] = tested on: human gastric cancer NCI-N87 transplanted tumor; assay: Example 7: tumor growth in NCI-N87 transplanted tumor model, alone and combined with DDP; type: in vivo, nude mice; conditions: DDP 4/2/1/4 mg/kg IP
# [2] = Example 9: serum urea nitrogen (BUN) at the end of the assay; type: in vivo, nude mice; conditions: serum, end of assay, A549 model
# Procedure: On the last day of the assay, CO2 inhalation anesthesia was used on the animals 1 hour after the administration (R01). Blood was collected through the heart, and a part of the whole blood was added with EDTA-K2 for anticoagulation. The plasma was separated by centrifugation at 4° C. and 1500 g for 10 minutes. The plasma was collected, and stored in a −40° C. to −20° C. freezer (if necessary, it can be used for the determination of the plasma drug concentration). No anticoagulant was added to the other part of the whole blood, and the serum was separated by centrifugation after the blood coagulated, which was used for the detection of blood urea nitrogen. After the blood collection, the tumor tissue was collected, weighed and photographed. Then, the tumor was divided into two parts, quickly cryopreserved by liquid nitrogen, and transferred to a −90° C. to −60° C. freezer for storage. Bilateral kidneys were collected and fixed in 10% formalin.
# [3] = Example 3: body weight of NCI-N87 tumor-bearing nude mice; type: in vivo, BALB/c nude mice; conditions: for Mean animal body weight / body weight loss rate: DDP 4/4/5/5 mg/kg i.p. QW×4
# Procedure: The NCI-N87 cells in the logarithmic growth phase were collected, counted and resuspended in a serum-free RPMI-1640 medium, and the cell concentration was adjusted to 5×10^7 cells/mL. The cells were pipetted with a pipette to disperse them evenly, and the cells were put into a 50-mL centrifuge tube, which was placed in an ice box. A 1-mL syringe was used to draw the cell suspension, which was injected subcutaneously into the axilla of the front right limb of a nude mouse. Each animal was inoculated with 100 μL (5×10^6 cells/mouse) to establish an NCI-N87 transplanted tumor model in nude mice. After the inoculation, the animal status and tumor growth were regularly observed, and the tumor diameter was measured using an electronic vernier caliper. The data were input into an Excel spreadsheet to calculate the tumor volume. When the tumor volume reached 100 to 300 mm^3, 72 animals in good health and with similar tumor volumes were selected and divided into 9 groups (n=8) using randomized block method. The day of grouping was regarded as the first day of the assay (D1). After the start of the assay, the tumor diameter was measured twice a week, the tumor volume was calculated, and the animal body weight was also weighed and recorded. [table] The calculation formula of animal weight loss rate is: wherein BWt represents the animal body weight measured each time during the administration period; BWinitial represents the animal body weight when being grouped for administration. The assay data were calculated and processed statistically using Microsoft Office Excel 2007 software. Unless otherwise specified, the data were expressed as mean±standard error (Mean±SE), and t-test was used for comparison between two groups.
# [4] = Example 7: serum UREA content; type: in vivo, nude mice; conditions: DDP 4/2/1/4 mg/kg IP
# [5] = tested on: human colorectal cancer HT29 transplanted tumor; assay: Example 10: tumor growth in HT-29 transplanted tumor model; type: in vivo, nude mice; conditions: HT-29 model, DDP 5 mg/kg i.p. QW × 3, R01 18 mg/kg i.g. BID × 28
# Procedure: The human colorectal cancer cell lines HT-29 were obtained from the Cell Bank of the Type Culture Collection Committee of Chinese Academy of Sciences (CAS, cryopreserved in liquid nitrogen in this assay).
# HT-29 cells were routinely cultured in a McCoy […] containing 10% fetal bovine serum under culture conditions of 37° C. and 5% CO2. The cells were digested with 0.25% trypsin, and passaged according to the cell growth conditions with a passaging ratio of 1:3 to 1:4.
# On D1 of the assay, the HT-29 cells in the logarithmic growth phase were collected, counted and resuspended in serum-free McCoy, and the cell concentration was adjusted to 4×10^7 cells/mL. The cells were pipetted with a pipette to disperse them evenly, and the cells were put into a 50-mL centrifuge tube, which was placed in an ice box. A 1-mL syringe was used to draw the cell suspension, which was injected subcutaneously into the axilla of the front right limb of a nude mouse. Each animal was inoculated with 100 μL (4×10^6 cells/mouse) to establish a HT-29 transplanted tumor model in nude mice. After the inoculation, the animal status and tumor growth were regularly observed. On D12, the tumor diameter was measured using an electronic vernier caliper. The data were input into an Excel spreadsheet to calculate the tumor volume. Tumor-bearing mice in good health and with similar tumor volumes (103 to 179 mm^3) were selected and divided into groups using randomized block method. After the start of the assay, the tumor diameter was measured regularly, the tumor volume was calculated, and the animal body weight was also weighed and recorded.
smiles,measurement,setting,value
"N.N.[Cl][Pt][Cl] [DDP, cisplatin]",Mean tumor volume,[1]; D12,155 ± 6 mm^3
same,Mean tumor volume,[1]; D16,241 ± 6 mm^3
same,tumor growth inhibition rate (TGI),[1]; D16,15%
same,Mean tumor volume,[1]; D19,294 ± 6* mm^3
same,tumor growth inhibition rate (TGI),[1]; D19,18%
same,Mean tumor volume,[1]; D23,341 ± 13** mm^3
same,tumor growth inhibition rate (TGI),[1]; D23,28%
same,Mean tumor volume,[1]; D26,419 ± 22** mm^3
same,tumor growth inhibition rate (TGI),[1]; D26,34%
same,Mean tumor volume,[1]; D30,543 ± 32** mm^3
same,tumor growth inhibition rate (TGI),[1]; D30,40%
same,Mean tumor volume,[1]; D33,642 ± 35** mm^3
same,tumor growth inhibition rate (TGI),[1]; D33,39%
same,Mean tumor volume,[1]; D37,810 ± 61* mm^3
same,tumor growth inhibition rate (TGI),[1]; D37,36%
same,Mean tumor volume,[1]; D40,911 ± 80* mm^3
same,tumor growth inhibition rate (TGI),[1]; D40,36%
same,Mean tumor volume,[1]; D44,1035 ± 95* mm^3
same,tumor growth inhibition rate (TGI),[1]; D44,35%
same,BUN (mmol/L) Mean ± SE,"[2]; group B, DDP 4 mg/kg i.p. QW × 4",21.17 ± 1.43 mmol/L
same,BUN (mmol/L) Mean ± SE,"[2]; group C, DDP 5/7/7/7 mg/kg i.p. QW × 4",28.56 ± 1.79 mmol/L
same,Mean animal body weight,[3]; D13,18.5 ± 0.4 g
same,Mean animal body weight,[3]; D16,17.3 ± 0.4 g
same,body weight loss rate,[3]; D16,(6.2%)
same,Mean animal body weight,[3]; D20,17.6 ± 0.4 g
same,body weight loss rate,[3]; D20,(4.8%)
same,Mean animal body weight,[3]; D23,17.5 ± 0.4 g
same,body weight loss rate,[3]; D23,(5.1%)
same,Mean animal body weight,[3]; D27,18.3 ± 0.6 g
same,body weight loss rate,[3]; D27,(1.1%)
same,Mean animal body weight,[3]; D30,17.6 ± 0.4 g
same,body weight loss rate,[3]; D30,(4.7%)
same,Mean animal body weight,[3]; D34,17.7 ± 0.4 g
same,body weight loss rate,[3]; D34,(4.3%)
same,Mean animal body weight,[3]; D37,17.2 ± 0.4 g
same,body weight loss rate,[3]; D37,(6.8%)
same,Mean animal body weight,[3]; D44,16.8 ± 0.4 g
same,body weight loss rate,[3]; D44,(8.9%)
same,effect on body weight compared with blank control group,"[3]; NCI-N87 tumor-bearing nude mice, summary of Table 6",decreased significantly
same,"Serum UREA content, Mean",[4],10.28 mmol serum^−1
same,"Serum UREA content, individual animals No1-No6",[4],8.06 mmol serum^−1 and 12.81 mmol serum^−1 and 15.45 mmol serum^−1 and 8.28 mmol serum^−1 and 10.47 mmol serum^−1 and 6.62 mmol serum^−1
same,Mean tumor volume ± SE,[5]; D 12 (grouping),131 ± 8 mm^3
same,Mean tumor volume ± SE,[5]; D 15,178 ± 10 mm^3
same,tumor growth inhibition rate,[5]; D 15,(37%)
same,Mean tumor volume ± SE,[5]; D 19,263 ± 11** mm^3
same,tumor growth inhibition rate,[5]; D 19,(48%)
same,Mean tumor volume ± SE,[5]; D 22,383 ± 25** mm^3
same,tumor growth inhibition rate,[5]; D 22,(36%)
same,Mean tumor volume ± SE,[5]; D 26,484 ± 28** mm^3
same,tumor growth inhibition rate,[5]; D 26,(39%)
same,Mean tumor volume ± SE,[5]; D 29,582 ± 25** mm^3
same,tumor growth inhibition rate,[5]; D 29,(44%)
same,Mean tumor volume ± SE,[5]; D 33,693 ± 34** mm^3
same,tumor growth inhibition rate,[5]; D 33,(48%)
same,Mean tumor volume ± SE,[5]; D 36,777 ± 38** mm^3
same,tumor growth inhibition rate,[5]; D 36,(47%)
same,Mean tumor volume ± SE,[5]; D 40,896 ± 56** mm^3
same,tumor growth inhibition rate,[5]; D 40,(45%)
